Columns and labels:
EGFR WT = EGFR WT (Homo sapiens (Human), UniProt P00533); assay: KinaseSeeker rabbit reticulocyte lysate competition binding assay (IC50)
Description: (§3) Luminescence readout translates into a highly sensitive and robust assay with low background and minimal interference from test compounds.
(§4) 10 mM stock solutions of test compounds were serially diluted in DMSO to make assay stocks. Prior to initiating IC50 determinations, the test compounds were evaluated for false positive against split-luciferase.
(§5) For kinase assays, Cfluc-kinase was translated along with Fos-Nfluc using a cell-free system (rabbit reticulocyte lysate) at 30° C. for 90 min. 24 uL aliquot of this lysate containing either 1 uL of DMSO (for no-inhibitor control) or compound solution in DMSO was incubated for 30 minutes at room temperature followed by 1 hour in presence of a kinase specific probe. 80 uL of luciferin assay reagent was added to each solution and luminescence was immediately measured on a luminometer.
(§6) The % Activity was plotted against compound concentration and the IC50 was determined for each compound using a 7-point curve (Jester, B. W.; et. al. J. Am. Chem. Soc. 2010, 132, 11727-11735. Jester, B. W.; et. al. J. Med. Chem. 2012, 55, 1526-1537).

kinase [1] = molecular target: kinase (Homo sapiens, UniProt P00533, DEL746-750); assay: Radioisotope filter binding assay (33P-ATP kinase activity, IC50); type: biochemical; conditions: EGFR E746-A750del, read-out: IC50 Activity level EGFR E746-A750del
Description: (§1) Radioisotope Filter Binding Assay: In this assay format, it directly detects the true product without the use of modified substrates or coupling enzymes (Uitdehaag, J. C. et al. Br. J. Pharmacol. 2012, 166, 858-876; Hastie, C. J. et al. Nat. Protoc. 2006, 1, 968-971) according to equation 1.
(§2) The protocol calls for test compound of the invention to be incubated with kinase, substrate, cofactors, and radio-isotope-labeled ATP (^33P-gamma-ATP). The reaction mixtures are then spotted onto filter papers which bind the radioisotope labeled catalytic product. Unreacted phosphate is removed via washing. The reagents used include base reaction buffer; 20 mM Hepes (pH 7.5), 10 mM MgCl2, 1 mM EGTA, 0.02% Brij35, 0.02 mg/ml BSA, 0.1 mM Na3VO4, 2 mM DTT, 1% DMSO. The reaction procedure include the following steps: (1) prepare indicated substrate in freshly prepared base reaction buffer, (2) deliver any required cofactors to the substrate solution above, (3) deliver indicated kinase into the substrate solution and gently mix, (4) deliver compounds in DMSO into the kinase reaction mixture by Acoustic technology (Echo550; nanoliter range), incubate for 20 minutes at room temperature, (5) deliver ^33P-ATP (specific activity 10 μCi/μL) into the reaction mixture to initiate the reaction, (6) incubate kinase reaction for 2 hours at room temperature, (7) reactions are spotted onto P81 ion exchange paper, (8) detect kinase activity by filter-binding method.

kinase [2] = molecular target: kinase (Homo sapiens, UniProt P00533); assay: as above; type: biochemical; conditions: EGFR WT, read-out: IC50 Activity level EGFR WT
Description: as §1, §2

kinase [3] = molecular target: kinase (Homo sapiens, UniProt P00533, L858R); assay: as above; type: biochemical; conditions: EGFR L858R, read-out: IC50 Activity level EGFR L858R
Description: as §1, §2

kinase [4] = assay: as above; type: biochemical; conditions: HER 2, read-out: IC50 Activity level HER 2
Description: as §1, §2

kinase [5] = molecular target: kinase (Homo sapiens, UniProt Q15303); assay: as above; type: biochemical; conditions: HER 4, read-out: IC50 Activity level HER 4
Description: as §1, §2

EGFR (L858R) = EGFR (L858R) (Homo sapiens (Human), UniProt P00533, L858R); assay: KinaseSeeker rabbit reticulocyte lysate competition binding assay (IC50)
Description: as §3, §4, §5, §6

EGFR E746-A750del = EGFR E746-A750del (Homo sapiens (Human), UniProt P00533, DEL746-750); assay: KINOMEscan competition binding assay (Kd); conditions: KINOMEscan binding constant; read-out: Kd Activity Level (EGFR E746-A750del)
Description: (§7) The assay is performed by combining three components: DNA-tagged kinase; immobilized ligand; and a test compound. The ability of the test compound to compete with the immobilized ligand is measured via quantitative PCR of the DNA tag.
(§8) For most assays, kinase-tagged T7 phage strains were prepared in an E. coli host derived from the BL21 strain. E. coli were grown to log-phase and infected with T7 phage and incubated with shaking at 32° C. until lysis. The lysates were centrifuged and filtered to remove cell debris. The remaining kinases were produced in HEK-293 cells and subsequently tagged with DNA for qPCR detection. Streptavidin-coated magnetic beads were treated with biotinylated small molecule ligands for 30 minutes at room temperature to generate affinity resins for kinase assays. The liganded beads were blocked with excess biotin and washed with blocking buffer (SeaBlock (Pierce), 1% BSA, 0.05% Tween 20, 1 mM DTT) to remove unbound ligand and to reduce nonspecific binding. […] All reactions were performed in polystyrene 96-well plates in a final volume of 0.135 ml. […] The kinase concentration in the eluates was measured by qPCR.

EGFR S752-I759del = EGFR S752-I759del (Homo sapiens (Human), UniProt P00533, DEL752-759); assay: KINOMEscan competition binding assay (Kd); conditions: KINOMEscan binding constant; read-out: Kd Activity Level (EGFR S752-I759del)
Description: as §7, §8

HER2 = HER2 (Homo sapiens (Human), UniProt P04626); assay: KinaseSeeker rabbit reticulocyte lysate competition binding assay (IC50)
Description: as §3, §4, §5, §6

[6] = molecular target: various mutant EGF receptors (Homo sapiens, UniProt P00533, G719C); assay: KINOMEscan competition binding assay (Kd), Example 40 in various mutant EGF receptors (Table 17)
Description: as §7, §8

[7] = molecular target: various mutant EGF receptors (Homo sapiens, UniProt P00533, A750P/DEL747-749); assay: as above
Description: as §7, §8

[8] = molecular target: various mutant EGF receptors (Homo sapiens, UniProt P00533, DEL747-752/P753S); assay: as above
Description: as §7, §8

[9] = molecular target: various mutant EGF receptors (Homo sapiens, UniProt P00533, L861Q); assay: as above
Description: as §7, §8

[10] = molecular target: various mutant EGF receptors (Homo sapiens, UniProt P00533, DEL747-751/INS746S); assay: as above
Description: as §7, §8

[11] = molecular target: various mutant EGF receptors (Homo sapiens, UniProt P00533, G719S); assay: as above
Description: as §7, §8

EGFR WT, sequence (P00533 25-1210): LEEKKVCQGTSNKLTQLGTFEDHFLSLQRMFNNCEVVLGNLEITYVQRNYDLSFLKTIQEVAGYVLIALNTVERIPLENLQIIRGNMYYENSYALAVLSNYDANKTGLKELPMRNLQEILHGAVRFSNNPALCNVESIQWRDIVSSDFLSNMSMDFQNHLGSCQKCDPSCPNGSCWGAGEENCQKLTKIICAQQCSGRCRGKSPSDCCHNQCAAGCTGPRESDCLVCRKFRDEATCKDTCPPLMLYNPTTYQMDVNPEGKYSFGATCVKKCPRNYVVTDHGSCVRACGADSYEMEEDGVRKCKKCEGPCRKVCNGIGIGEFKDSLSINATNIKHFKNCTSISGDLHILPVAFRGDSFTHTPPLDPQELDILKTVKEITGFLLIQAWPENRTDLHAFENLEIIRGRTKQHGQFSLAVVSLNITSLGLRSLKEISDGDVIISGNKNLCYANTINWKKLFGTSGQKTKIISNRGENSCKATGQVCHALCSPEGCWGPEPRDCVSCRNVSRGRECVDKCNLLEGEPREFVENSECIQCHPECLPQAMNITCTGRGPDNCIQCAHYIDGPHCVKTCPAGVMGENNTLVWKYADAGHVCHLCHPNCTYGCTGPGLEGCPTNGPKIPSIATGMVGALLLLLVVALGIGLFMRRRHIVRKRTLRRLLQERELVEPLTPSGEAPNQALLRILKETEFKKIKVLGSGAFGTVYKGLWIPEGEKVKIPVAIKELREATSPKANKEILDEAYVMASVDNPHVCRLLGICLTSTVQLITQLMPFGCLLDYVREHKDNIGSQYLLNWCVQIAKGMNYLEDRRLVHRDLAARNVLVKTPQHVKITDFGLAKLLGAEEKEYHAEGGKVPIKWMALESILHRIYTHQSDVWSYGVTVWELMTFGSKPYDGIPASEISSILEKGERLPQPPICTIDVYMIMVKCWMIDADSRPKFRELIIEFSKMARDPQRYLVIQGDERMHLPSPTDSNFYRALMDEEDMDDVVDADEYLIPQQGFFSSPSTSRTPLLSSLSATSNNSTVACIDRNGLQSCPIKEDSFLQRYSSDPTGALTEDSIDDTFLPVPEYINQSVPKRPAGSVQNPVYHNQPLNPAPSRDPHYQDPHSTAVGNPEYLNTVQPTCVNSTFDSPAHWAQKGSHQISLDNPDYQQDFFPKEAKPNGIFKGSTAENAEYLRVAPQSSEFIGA
kinase (Homo sapiens, UniProt P00533), sequence (P00533 25-1210 limits assumed): as the sequence (P00533 25-1210) above
kinase (Homo sapiens, UniProt P00533, DEL746-750), sequence (P00533 with tags, fused parts or gaps DEL746-750 limits assumed): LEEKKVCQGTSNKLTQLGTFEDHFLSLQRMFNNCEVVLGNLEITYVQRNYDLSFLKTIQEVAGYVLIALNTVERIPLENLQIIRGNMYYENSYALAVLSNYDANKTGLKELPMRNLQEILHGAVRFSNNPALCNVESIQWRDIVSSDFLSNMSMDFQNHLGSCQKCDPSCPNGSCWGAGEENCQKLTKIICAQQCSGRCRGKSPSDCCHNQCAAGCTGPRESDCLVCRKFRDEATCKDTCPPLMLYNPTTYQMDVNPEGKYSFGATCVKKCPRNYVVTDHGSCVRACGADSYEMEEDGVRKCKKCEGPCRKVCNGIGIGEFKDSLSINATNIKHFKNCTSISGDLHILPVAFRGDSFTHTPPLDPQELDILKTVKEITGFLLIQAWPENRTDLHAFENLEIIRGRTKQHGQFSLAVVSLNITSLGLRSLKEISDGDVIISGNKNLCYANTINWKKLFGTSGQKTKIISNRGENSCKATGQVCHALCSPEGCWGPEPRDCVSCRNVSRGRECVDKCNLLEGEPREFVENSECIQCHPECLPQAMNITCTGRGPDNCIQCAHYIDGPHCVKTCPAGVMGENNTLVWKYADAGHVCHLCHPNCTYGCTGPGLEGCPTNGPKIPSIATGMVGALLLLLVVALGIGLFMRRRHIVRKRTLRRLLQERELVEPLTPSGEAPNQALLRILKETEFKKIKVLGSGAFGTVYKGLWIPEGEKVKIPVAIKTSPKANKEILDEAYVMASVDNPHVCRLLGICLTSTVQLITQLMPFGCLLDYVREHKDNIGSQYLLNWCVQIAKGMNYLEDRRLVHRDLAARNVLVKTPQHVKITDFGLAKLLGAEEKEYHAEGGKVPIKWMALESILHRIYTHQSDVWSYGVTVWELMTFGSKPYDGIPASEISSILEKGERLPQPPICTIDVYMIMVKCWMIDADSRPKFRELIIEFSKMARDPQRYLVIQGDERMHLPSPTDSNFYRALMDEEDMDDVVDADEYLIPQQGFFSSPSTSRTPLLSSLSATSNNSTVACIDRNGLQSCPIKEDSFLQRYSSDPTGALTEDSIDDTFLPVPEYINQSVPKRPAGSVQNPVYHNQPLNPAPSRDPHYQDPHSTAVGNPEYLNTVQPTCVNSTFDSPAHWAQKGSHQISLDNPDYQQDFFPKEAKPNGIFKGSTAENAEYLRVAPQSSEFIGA
EGFR (L858R), sequence (P00533 25-1210 L858R): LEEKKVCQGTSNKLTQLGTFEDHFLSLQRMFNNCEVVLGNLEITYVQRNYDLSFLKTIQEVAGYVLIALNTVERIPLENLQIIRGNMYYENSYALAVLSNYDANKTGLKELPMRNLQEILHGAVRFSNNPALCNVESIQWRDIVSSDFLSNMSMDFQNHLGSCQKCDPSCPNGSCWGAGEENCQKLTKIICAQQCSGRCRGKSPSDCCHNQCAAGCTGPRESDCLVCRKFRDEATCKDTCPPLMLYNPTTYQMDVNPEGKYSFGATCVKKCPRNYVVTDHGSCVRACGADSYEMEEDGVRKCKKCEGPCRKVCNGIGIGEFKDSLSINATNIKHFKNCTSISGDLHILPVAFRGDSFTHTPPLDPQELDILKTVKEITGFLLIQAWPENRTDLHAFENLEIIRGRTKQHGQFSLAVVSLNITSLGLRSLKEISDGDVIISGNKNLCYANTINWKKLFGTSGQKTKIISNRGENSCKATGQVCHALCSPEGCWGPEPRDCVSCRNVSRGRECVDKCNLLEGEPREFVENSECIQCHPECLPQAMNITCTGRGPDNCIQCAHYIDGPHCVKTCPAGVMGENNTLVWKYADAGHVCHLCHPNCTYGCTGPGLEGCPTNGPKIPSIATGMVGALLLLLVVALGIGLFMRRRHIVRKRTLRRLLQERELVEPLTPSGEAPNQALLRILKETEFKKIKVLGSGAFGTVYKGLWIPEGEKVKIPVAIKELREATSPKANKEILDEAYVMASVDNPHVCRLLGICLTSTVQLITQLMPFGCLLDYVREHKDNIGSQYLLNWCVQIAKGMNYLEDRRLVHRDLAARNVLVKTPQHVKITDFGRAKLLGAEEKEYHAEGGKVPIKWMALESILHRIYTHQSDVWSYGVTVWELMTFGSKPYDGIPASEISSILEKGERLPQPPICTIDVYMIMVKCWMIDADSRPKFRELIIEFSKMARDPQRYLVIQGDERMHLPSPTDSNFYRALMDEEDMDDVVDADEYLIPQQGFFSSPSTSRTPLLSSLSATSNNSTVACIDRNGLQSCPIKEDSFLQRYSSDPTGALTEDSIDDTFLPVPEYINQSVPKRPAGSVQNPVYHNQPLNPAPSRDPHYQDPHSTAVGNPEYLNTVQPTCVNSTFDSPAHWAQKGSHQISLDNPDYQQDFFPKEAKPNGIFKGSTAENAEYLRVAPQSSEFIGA
EGFR S752-I759del, sequence (P00533 other isoform, or with tags, fused parts or gaps del 1-668/del 752-759/del 1012-1210 limits assumed): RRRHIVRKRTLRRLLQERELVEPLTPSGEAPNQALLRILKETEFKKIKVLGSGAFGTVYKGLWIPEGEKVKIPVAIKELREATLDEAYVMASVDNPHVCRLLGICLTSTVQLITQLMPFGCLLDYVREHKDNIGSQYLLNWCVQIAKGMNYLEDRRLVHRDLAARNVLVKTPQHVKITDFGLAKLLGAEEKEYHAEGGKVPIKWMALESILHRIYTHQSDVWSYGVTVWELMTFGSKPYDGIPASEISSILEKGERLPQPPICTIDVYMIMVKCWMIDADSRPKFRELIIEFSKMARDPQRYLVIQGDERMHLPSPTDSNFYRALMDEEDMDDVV

| Compound | IC50 (EGFR WT) [nM] | IC50 (kinase [1]) [nM] | IC50 (kinase [2]) [nM] | IC50 (kinase [3]) [nM] | IC50 (kinase [4]) [nM] | IC50 (kinase [5]) [nM] | IC50 (EGFR (L858R)) [nM] | Kd (EGFR E746-A750del) [nM] | Kd (EGFR S752-I759del) [nM] | IC50 (HER2) [nM] | Kd [6] [nM] | Kd [7] [nM] | Kd [8] [nM] | Kd [9] [nM] | Kd [10] [nM] | Kd [11] [nM] |
| --- | --- | --- | --- | --- | --- | --- | --- | --- | --- | --- | --- | --- | --- | --- | --- | --- |
| N#Cc1cnc2cc(OC[C@@H](O)CO)c(NC(=O)C3CSSC3)cc2c1Nc1ccc(OCc2cccc(F)c2)c(Cl)c1 [Example 98, (S)—N-(4-((3-Chloro-4-((3-fluorobenzyl)oxy)phenyl)amino)-3-cyano-7-(2,3dihydroxypropoxy)quinolin-6-yl)-1,2-dithiolane-4-carboxamide] | 100 to 999 | 100 to 999 | 1 to 99 | 1 to 99 | 100 to 999 | 1 to 99 | 1 to 99 |  |  |  |  |  |  |  |  |  |
| N#Cc1cnc2cc(OC[C@H](O)CO)c(NC(=O)CC3CSSC3)cc2c1Nc1ccc(OCc2cccc(F)c2)c(Cl)c1 [Example 90, (R)—N-(4-((3-Chloro-4-((3-fluorobenzyl)oxy)phenyl)amino)-3-cyano-7-(2,3-dihydroxypropoxy)quinolin-6-yl)-2-(1,2-dithiolan-4-yl)acetamide] | 100 to 999 | 1000 to 10000 | 1 to 99 | 100 to 999 |  | 1 to 99 | 1 to 99 |  |  |  |  |  |  |  |  |  |
| N#Cc1cnc2cc(OC[C@H](O)CO)c(NC(=O)C3CSSC3)cc2c1Nc1ccc(OCc2cccc(F)c2)c(Cl)c1 [Example 95, (R)—N-(4-((3-Chloro-4-((3-fluorobenzyl)oxy)phenyl)amino)-3-cyano-7-(2,3-dihydroxypropoxy)quinolin-6-yl)-1,2-dithiolane-4-carboxamide] | 100 to 999 | 1000 to 10000 | 1 to 99 | 100 to 999 |  |  | 1 to 99 |  |  |  |  |  |  |  |  |  |
| N#Cc1cnc2cc(OC[C@@H](O)CO)c(NC(=O)CC3CSSC3)cc2c1Nc1ccc(OCc2cccc(F)c2)c(Cl)c1 [Example 92, (S)—N-(4-((3-Chloro-4-((3-fluorobenzyl)oxy)phenyl)amino)-3-cyano-7-(2,3-dihydroxypropoxy)quinolin-6-yl)-2-(1,2-dithiolan-4-yl)acetamide] | 100 to 999 | 1000 to 10000 | 1 to 99 | 100 to 999 | 100 to 999 | 1 to 99 | 1 to 99 | 1 to 99 | 1 to 99 | 100 to 999 |  |  |  |  |  |  |
| CCOc1cc2ncc(C#N)c(Nc3ccc(OCc4cccc(F)c4)c(Cl)c3)c2cc1NC(=O)CC1CCSS1 (stereo not shown) [Example 40] | 100 to 999 |  |  |  |  |  | 1 to 99 | 1 to 99 | 1 to 99 | 100 to 999 | 1 to 99 | 1 to 99 | 1 to 99 | 1 to 99 | 1 to 99 | 1 to 99 |
| N#Cc1cnc2ccc(NC(=O)CC3CCSS3)cc2c1Nc1ccc(OCc2cccc(F)c2)c(Cl)c1 (stereo not shown) [Example 62, N-(4-((3-Chloro-4-((3-fluorobenzyl)oxy)phenyl)amino)-3-cyanoquinolin-6-yl)-2-(1,2-dithiolan-3-yl)acetamide] | 100 to 999 |  |  |  |  | 1 to 99 | 1 to 99 |  |  |  |  |  |  |  |  |  |
| N#Cc1cnc2ccc(NC(=O)C3CSSC3)cc2c1Nc1ccc(OCc2cccc(F)c2)c(Cl)c1 [Example 61, N-(4-((3-Chloro-4-((3-fluorobenzyl)oxy)phenyl)amino)-3-cyanoquinolin-6-yl)-1,2-dithiolane-4-carboxamide] |  |  |  |  |  | 100 to 999 |  |  |  |  |  |  |  |  |  |  |
